Reference: patent EP0937460A2, “Use of an antidiarrheal for the manufacture of a medicament for the treatment of inflammatory conditions” (Adolor Corporation, priority 1994, dated 1995)

What was measured:
Format in all cases: cell-based
[1] = tested on: TNF production; assay: Inhibition of LPS-stimulated TNF production in the human monocytic cell line THP-1 (ELISA); details: for TNF LEVEL % Control (LPS alone); Ave. ± S.D. / activity at 10 µM: THP-1 cells, DRUG [10 µM], LPS 1 µg/mL; for activity at 10 µM / inhibition at 10 µM: Homo sapiens; for activity at 10 µM: 6 h, read-out: TNF LEVEL % Control (LPS alone), Ave. ± S.D.; for inhibition at 10 µM / effectiveness against LPS-stimulated TNF production (in words): LPS-stimulated THP-1 cells; for inhibition at 10 µM: drug 10 µM, read-out: inhibition of TNF production; for effectiveness against LPS-stimulated TNF production (in words): 10 µM
Description: Cultures were maintained by the addition of fresh growth medium to a T-75 or T-150 flask of cells in suspension, or by pelleting the cells and re-suspending them in the appropriate volume of fresh medium. Maximum cell density was 1.0 x 10^6 cells per mL and cultures were seeded at a minimum density of 0.2 x 10^6 cells per ml.
THP-1 cells were plated into 24-well plates at a density of 1.0 x 10^6 cells per mL in 0.5 mL medium per well. […] For measurement of IL-1α and IL-1β production, THP-1 cells were incubated with 500 ng/mL or 50 ng/mL LPS and incubated for 16 hours. Levels of secreted cytokine were measured in cell supernatants as for TNF. Cell-associated species were measured in cell lysates which were prepared by repetitive freeze-thawing of cells. For in vitro screening, drugs at 10 µM concentration were co-administered with LPS. […] Drug effects on cell viability were assessed by the MTT assay. […] Water-soluble drugs were dissolved in aqueous solutions such as RPMI or deionized H20. The final concentration of DMSO in the incubation medium was at or below 0.01% and that of ethanol was at or below 0. 1%. The effect on cell viability was evaluated by the MTT assay.

[2] = tested on: TNF production; assay: Inhibition of LPS-stimulated TNF production in the mouse macrophage line RAW 264.7 (ELISA); details: RAW cells; for TNF LEVEL % Control (LPS alone); Ave. ± S.D. / activity at 10 µM: DRUG [10 µM], LPS at 10 ng/mL; for activity at 10 µM: RAW264.7, 6 h, read-out: TNF LEVEL % Control (LPS alone), Ave. ± S.D.; for inhibition at 10 µM: LPS 10 ng/mL, read-out: inhibition of LPS-stimulated TNF secretion
Description: Cells were passaged at confluence by scraping and routinely plated at a density of 0.25 x 10^6 and 0.5 x 10^6 cells per T-75 and T-150, respectively.
Typically, RAW cells were plated at 0.25 x 10^6 cells per well of a 24-well plate, in 0.5 mL media per well on the day prior to experimentation. […] 1%. Drugs were co-administered with the stimulant, LPS. After a 6-hr incubation period with LPS ± drug (n = 3-4), the media from the experimental wells was harvested, the cells were removed by microcentrifugation, and the media assayed for TNF by ELISA. Drugs were screened at 10 µM for their ability to alter TNF production by cells stimulated with 1 µg/mL or 10 ng/mL LPS. Dexamethasone, an anti-inflammatory corticosteroid, served as the reference for inhibition of the LPS response.

[3] = tested on: TNF production; assay: Inhibition of TPA-stimulated TNF production in human epidermal keratinocytes (ELISA); details: for activity at 10 µM: epidermal keratinocytes, read-out: TNF LEVEL % Control (LPS alone), Ave. ± S.D.
[4] = Homo sapiens, HEK cells, DRUG [10 µM], stimulation by TPA 10 ng/mL
[5] = Mus musculus, RAW264.7, drug 10 µM

`COc1ccc(CCN(C)CCC[C@](C#N)(c2ccc(OC)c(OC)c2)C(C)C)cc1OC` [(+)-Verapamil, (+)-verapamil] was tested, and the “TNF LEVEL % Control (LPS alone); Ave. ± S.D.” value (“TNF LEVEL % Control” for short) [1] was 51±2 % Control.

With `COc1ccc(CCN(C)CCC[C@@](C#N)(c2ccc(OC)c(OC)c2)C(C)C)cc1OC` [(-)-Verapamil, (-)-verapamil] the “TNF LEVEL % Control” value [1] was 53±3 % Control.

With `NCC(O)c1ccc(O)c(O)c1` (stereo not shown) [Arterenol] the “TNF LEVEL % Control” value [2] was 38±4 % Control, the “TNF LEVEL % Control” value [1] was 1±0.2 % Control and the “TNF LEVEL % Control” value ([3]; HEK cells, DRUG [10 µM], stimulation by TPA 10 ng/mL) was 47±10 % Control.

`CC(C)COCC(CN(Cc1ccccc1)c1ccccc1)N1CCCC1` (stereo not shown) [Bepridil, 1-Pyrrolidieneethanamine, b-[(2-methylpropoxy)methyl]-N-phenyl-N-(phenylmethyl)] gave an activity at 10 µM ([2]; Mus musculus) of 40 ± 4% and an activity at 10 µM [1] of 77 ± 9%.

`C[C@@H]1C[C@H]2[C@@H]3CCC4=CC(=O)C=C[C@]4(C)[C@@]3(F)[C@@H](O)C[C@]2(C)[C@@]1(O)C(=O)CO` [Dexamethasone, dexamethasone] was tested, and the activity at 10 µM ([2]; Mus musculus) was 39 ± 27%, the “inhibition of the stimulated production of TNF (decrease of secreted TNF vs LPS alone)” value ([2]; drug 10 µM, LPS dose not stated) was 60% and the activity at 10 µM [1] was 33 ± 14%. The inhibition at 10 µM [1] was 67%, the inhibition at 10 µM ([3]; Homo sapiens, Keratinocyte, keratinocytes, TPA 10 ng/mL, drug 10 µM, read-out: inhibition of the response to TPA (TNF production)) was greater than 55% and the activity at 10 µM [3, 4] was 48 ± 12%.

`COc1ccc([C@@H]2Sc3ccccc3N(CCN(C)C)C(=O)[C@@H]2OC(C)=O)cc1` [Diltiazem, 1,5-Benzothiazepin-4(5H)-one, 3-(acetyloxy)-5-[2-(dimethylamino)ethyl]-2,3-dihydro-2-(4-methoxyphenyl)-, (2S-cis)-] was tested, and the activity at 10 µM ([2]; Mus musculus) was 47 ± 1%, the activity at 10 µM [1] was 86 ± 16% and the “effectiveness against LPS-stimulated TNF production (in words)” value (from here on “effectiveness”) [1] was “much less effective”.

With `CCOC(=O)C1(c2ccccc2)CCN(CCC(C#N)(c2ccccc2)c2ccccc2)CC1` [Diphenoxylate, diphenoxylate] the activity at 10 µM ([3]; Homo sapiens) was 68 ± 10%.

With `NS(=O)(=O)c1cc(C(=O)O)c(NCc2ccco2)cc1Cl` [Furosemide, benzoic acid, 5-(aminosulfonyl)-4-chloro-2-[(2-furanylmethyl)amino]-] the activity at 10 µM ([2]; Mus musculus) was 49 ± 4%, the inhibition at 10 µM [2, 5] was roughly 49% and the “effectiveness” value ([2]; drug 10 µM) was “comparable to amiloride”.

With `COC(=O)C1=C(C)NC(C)=C(C(=O)OC(C)C)C1c1cccc2nonc12` (stereo not shown) [Isradipine, 3,5-Pyridinecarboxylic acid, 4-(4-benzofurazanyl)-l,4-dihydro-2,6-dimethyl, methyl 1-methylethyl ester] the “effectiveness” value ([2]; drug 10 µM) was “as effective as dexamethasone”, the activity at 10 µM [1] was 77 ± 8% and the “effectiveness” value [1] was “much less effective”. For the same compound, the activity at 10 µM [3, 4] was 60 ± 7%.

`COC(=O)C1=C(C)NC(C)=C(C(=O)OCCN(C)Cc2ccccc2)C1c1cccc([N+](=O)[O-])c1` (stereo not shown) [Nicardipine, 3,5-Pyridinedicarboxylic acid, 1,4-dihydro-2,6-dimethyl-4-(3-nitrophenyl)-, methyl 2-[methyl(phenylmethyl)amino]ethyl ester] was tested, and the activity at 10 µM ([2]; Mus musculus) was 59 ± 35%, the activity at 10 µM [1] was 44 ± 1% and the inhibition at 10 µM [1] was 56%.

In the case of `COC(=O)C1=C(C)NC(C)=C(C(=O)OC)C1c1ccccc1[N+](=O)[O-]` [Nifedipine], the activity at 10 µM ([2]; Mus musculus) is reported as 79 ± 24%, the activity at 10 µM [1] is reported as 119% and the activity at 10 µM [3, 4] is reported as 88 ± 40%.

`COCCOC(=O)C1=C(C)NC(C)=C(C(=O)OC(C)C)C1c1cccc([N+](=O)[O-])c1` (stereo not shown) [Nimodipine, nimodipine] gave an activity at 10 µM ([2]; Mus musculus) of 37 ± 3%, an activity at 10 µM [1] of 81 ± 4% and an activity at 10 µM [3, 4] of 15 ± 3%.

For `CC(=O)CCCCn1c(=O)c2c(ncn2C)n(C)c1=O` [Pentoxifylline, pentoxifylline], the activity at 10 µM ([2]; Mus musculus) was 43 ± 2%, the inhibition at 10 µM [2, 5] was 57% and the activity at 10 µM [1] was no less than 100%.

`CCCCOc1cc(CC2CNC(=O)N2)ccc1OC` (stereo not shown) [RO 20-1724] was tested, and the IC50 ([2]; Mus musculus, RAW264.7) was 1 to 10 nM, the inhibition at 10 µM [2, 5] was 47% and the “TNF LEVEL % Control” value [2] was 47±23 % Control. The inhibition at 10 µM [1] was 55% and the “TNF LEVEL % Control” value [1] was 45±34 % Control.

`COC(=O)C1=C(C)NC(C)=C(C(=O)OC(C)(C)CN(C)CCC(c2ccccc2)c2ccccc2)C1c1cccc([N+](=O)[O-])c1` (stereo not shown) [Rec 15/2375] was tested, and the “TNF LEVEL % Control” value [2] was 33± 1 % Control and the “TNF LEVEL % Control” value [1] was 57±15 % Control.

`CC(=O)S[C@@H]1CC2=CC(=O)CC[C@]2(C)[C@H]2CC[C@@]3(C)[C@@H](CC[C@@]34CCC(=O)O4)[C@H]12` [Spironolactone, spironolactone] was tested, and the activity at 10 µM [1] was 54 ± 8%, the inhibition at 10 µM [1] was 46% and the “effectiveness” value [1] was “as effective as amiloride”.

`CC(C)(C)NCC(O)c1cc(O)cc(O)c1` (stereo not shown) [Terbutaline, terbutaline] was tested, and the activity at 10 µM ([2]; Mus musculus) was 33 ± 9%, the activity at 10 µM [1] was 12 ± 4% and the activity at 10 µM [3, 4] was 36 ± 8%.

With `O=C1CCC(N2C(=O)c3ccccc3C2=O)C(=O)N1` (stereo not shown) [Thalidomide] the activity at 10 µM ([2]; Mus musculus) was 67 ± 37%, the activity at 10 µM [1] was 78 ± 9% and the activity at 10 µM [3, 4] was no less than 100%.

In the case of `NCCCCCCNS(=O)(=O)c1cccc2c(Cl)cccc12` [W-7], the inhibition at 10 µM [1] is reported as 40 to 50%.

For `CCCCNc1cc(C(=O)O)cc(S(N)(=O)=O)c1Oc1ccccc1` [bumetanide], the “effectiveness” value ([2]; drug 10 µM) was “minimal inhibition”.

For `Clc1ccc(C(c2ccc(Cl)cc2)n2cc[n+](CC(OCc3ccc(Cl)cc3Cl)c3ccc(Cl)cc3Cl)c2)cc1` (stereo not shown) [calmidazolium], the inhibition at 10 µM [1] was 40 to 50%.

With `CN(C)c1nc(N)c(C(=O)N=C(N)N)nc1Cl` [dimethylamiloride] the “effectiveness” value ([2]; drug 10 µM) was “same extent of inhibition as amiloride”.

`O=C1c2c(O)cccc2Cc2cccc(O)c21` [dithranol] gave an inhibition at 10 µM [2, 5] of 67%.

Work on `Fc1ccc(C(c2ccc(F)cc2)N2CCN(C/C=C/c3ccccc3)CC2)cc1` [flunarizine, Peperizine, 1-[bis(4-fluorophenyl)methyl]-4-(3-phenyl-2-propenyl)-, (E)] yielded an inhibition at 10 µM [2, 5] of 63%.

With `NC(N)=NC(=O)c1nc(Cl)c(N2CCCCCC2)nc1N` [hexamethylamiloride] the “effectiveness” value ([2]; drug 10 µM) was “tremendous decrease” and the “effect on TPA-stimulated levels of TNF (in words)” value ([3]; human keratinocytes, TPA 10 ng/mL, drug 10 µM) was “several fold higher”.

`COc1ccc2c(c1)CCC(c1ccccc1)=C2c1ccc(OCCN2CCCC2)cc1` [nafoxidine] showed an inhibition at 10 µM [2, 5] of roughly 65%.

`O=c1[nH]c2ccccc2n1C1CCN(CCCC(c2ccc(F)cc2)c2ccc(F)cc2)CC1` [pimozide] showed an inhibition at 10 µM [2, 5] of 60 to 70%.

Work on `CC/C(=C(\c1ccccc1)c1ccc(OCCN(C)C)cc1)c1ccccc1` [tamoxifen] yielded an inhibition at 10 µM [2, 5] of roughly 65%.

Compound `CSc1ccc2c(c1)N(CCC1CCCCN1C)c1ccccc1S2` (stereo not shown) [thioridazine] has an inhibition at 10 µM [2, 5] of 60 to 70%.
